Tests used:
Format in all cases: in vivo
[1] = system: Sunflower; assay: Test C preemergence; settings: scale 0 to 100, 0 no effect, 100 complete control
[2] = system: giant foxtail (Setaria faberii); assay: Test B postemergence
In short: (§1)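 Seeds were planted and sprayed preemergence with test chemical in a non-phytotoxic solvent mixture containing surfactant; postemergence plants (2 to 18 cm, 1- to 4-leaf stage) received the same formulation. Greenhouse hold 13 to 15 days, then visual rating versus untreated controls on a 0–100 scale (0 no effect, 100 complete control).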

[3] = system: corn (Zea mays); assay: Test B postemergence
In short: as §1

[4] = system: wild oat (Avena fatua); assay: Test B postemergence
In short: as §1

[5] = system: barnyardgrass (Echinochloa crus-galli); assay: Test B postemergence
In short: as §1

[6] = system: Surinam grass (Brachiaria decumbens); assay: Test B postemergence
In short: as §1

[7] = system: lambsquarters (Chenopodium album); assay: Test B postemergence
In short: as §1

[8] = system: wheat (Triticum aestivum); assay: Test B postemergence
In short: as §1

[9] = system: blackgrass (Alopecurus myosuroides); assay: Test B postemergence
In short: as §1

[10] = system: velvetleaf (Abutilon theophrasti); assay: Test B postemergence
In short: as §1

[11] = system: morning glory (Ipomoea hederacea); assay: Test B postemergence
In short: as §1

[12] = system: cocklebur (Xanthium strumarium); assay: Test B postemergence
In short: as §1

[13] = system: crabgrass (Digitaria sanguinalis); assay: Test B postemergence
In short: as §1

[14] = system: pigweed (Amaranthus retroflexus); assay: Test B postemergence
In short: as §1

[15] = system: Nightshade; assay: Test C preemergence; settings: visual evaluation after 12 to 14 days
[16] = system: giant foxtail (Setaria faberii); assay: Test B preemergence
In short: as §1

[17] = system: corn (Zea mays); assay: Test B preemergence
In short: as §1

[18] = system: barnyardgrass (Echinochloa crus-galli); assay: Test B preemergence
In short: as §1

[19] = system: Surinam grass (Brachiaria decumbens); assay: Test B preemergence
In short: as §1

[20] = system: lambsquarters (Chenopodium album); assay: Test B preemergence
In short: as §1

[21] = system: velvetleaf (Abutilon theophrasti); assay: Test B preemergence
In short: as §1

[22] = system: morning glory (Ipomoea hederacea); assay: Test B preemergence
In short: as §1

[23] = system: cocklebur (Xanthium strumarium); assay: Test B preemergence
In short: as §1

[24] = system: crabgrass (Digitaria sanguinalis); assay: Test B preemergence
In short: as §1

[25] = system: rice (Oryza saliva); assay: Test B preemergence
In short: as §1

[26] = system: pigweed (Amaranthus retroflexus); assay: Test B preemergence
In short: as §1

[27] = Rate 125 g/ha, scale 0 (no effect) to 100 (complete control), 13 to 15 days
[28] = Rate 500 g/ha, scale 0 to 100, 0 is no effect, 100 is complete control, 13 to 15 days
[29] = Preemergence, Rate 500 g/ha, scale 0 to 100, 0 no effect, 100 complete control
[30] = preemergence, Rate 125 g/ha, scale of 0 to 100 where 0 is no effect and 100 is complete control, 13 to 15 days
[31] = Rate 125 g/ha, scale 0 to 100, 0 no effect, 100 complete control
[32] = preemergence, Rate 125 g/ha, scale 0 to 100, 0 no effect, 100 complete control

CC(C)(C)c1ccn(C2CCN(c3cccc(I)c3)C2=O)n1 (stereo not shown) [Compound 88]
Plant response rating, Sunflower ([1]; Rate 250 g/ha): 20 | Plant response rating, Foxtail, Giant [2, 27]: 20 | Plant response rating, Foxtail, Giant [2, 28]: 60 | Plant response rating, Corn [3, 27]: 0 | Plant response rating, Corn [3, 28]: 10 | Plant response rating, Wild Oat [4, 27]: 0 | Plant response rating, Wild Oat [4, 28]: 0 | Plant response rating, Barnyardgrass [5, 27]: 0 | Plant response rating, Barnyardgrass [5, 28]: 90 | Plant response rating, Surinam grass [6, 27]: 0 | Plant response rating, Surinam grass [6, 28]: 0 | Plant response rating, Lambsquarters [7, 27]: 100 | Plant response rating, Lambsquarters [7, 28]: 100 | Plant response rating, Wheat [8, 27]: 0 | Plant response rating, Wheat [8, 28]: 30 | Plant response rating, Blackgrass [9, 27]: 0 | Plant response rating, Blackgrass [9, 28]: 0 | Plant response rating, Velvetleaf [10, 27]: 0 | Plant response rating, Velvetleaf [10, 28]: 40 | Plant response rating, Morningglory [11, 27]: 20 | Plant response rating, Morningglory [11, 28]: 70 | Plant response rating, Cocklebur [12, 27]: 20 | Plant response rating, Cocklebur [12, 28]: 30 | Plant response rating, Crabgrass [13, 27]: 0 | Plant response rating, Crabgrass [13, 28]: 0 | Plant response rating, Pigweed [14, 27]: 90 | Plant response rating, Pigweed [14, 28]: 100 | Plant response rating (0 to 100), Nightshade ([15]; Rate 500 g/ha): 80 | Plant response rating, Foxtail, Giant [16, 29]: 100 | Plant response rating, Foxtail, Giant [16, 30]: 100 | Plant response rating, Corn [17, 29]: 20 | Plant response rating, Corn [17, 30]: 20 | Plant response rating, Barnyardgrass [18, 29]: 100 | Plant response rating, Barnyardgrass [18, 30]: 100 | Plant response rating, Surinam grass [19, 29]: 100 | Plant response rating, Surinam grass [19, 30]: 70 | Plant response rating, Lambsquarters [20, 29]: 100 | Plant response rating, Lambsquarters [20, 30]: 100 | Plant response rating, Velvetleaf [21, 29]: 0 | Plant response rating, Velvetleaf [21, 30]: 0 | Plant response rating, Morningglory [22, 29]: 0 | Plant response rating, Morningglory [22, 30]: 0 | Plant response rating, Cocklebur [23, 29]: 0 | Plant response rating, Cocklebur [23, 30]: 0 | Plant response rating, Crabgrass [24, 29]: 100 | Plant response rating, Crabgrass [24, 30]: 100 | Plant response rating, Rice [25, 29]: 100 | Plant response rating, Rice [25, 30]: 0 | Plant response rating, Pigweed [26, 29]: 100 | Plant response rating, Pigweed [26, 30]: 100

CCCC(C)c1ccn(C2CCN(c3cccc(OCC)c3)C2=O)n1 (stereo not shown) [Compound 129]
Plant response rating, Sunflower ([1]; Rate 250 g/ha): 10 | Plant response rating, Foxtail, Giant [2, 31]: 0 | Plant response rating, Corn [3, 31]: 0 | Plant response rating, Corn [3, 28]: 0 | Plant response rating, Wild Oat [4, 31]: 0 | Plant response rating, Barnyardgrass [5, 31]: 0 | Plant response rating, Barnyardgrass [5, 28]: 60 | Plant response rating, Surinam grass [6, 31]: 0 | Plant response rating, Surinam grass [6, 28]: 0 | Plant response rating, Lambsquarters [7, 31]: 100 | Plant response rating, Wheat [8, 31]: 0 | Plant response rating, Blackgrass [9, 31]: 0 | Plant response rating, Blackgrass [9, 28]: 0 | Plant response rating, Velvetleaf [10, 31]: 0 | Plant response rating, Morningglory [11, 31]: 0 | Plant response rating, Cocklebur [12, 31]: 0 | Plant response rating, Cocklebur [12, 28]: 30 | Plant response rating, Crabgrass [13, 31]: 0 | Plant response rating, Pigweed [14, 31]: 0 | Plant response rating (0 to 100), Nightshade ([15]; Rate 500 g/ha): 60 | Plant response rating, Foxtail, Giant [16, 29]: 100 | Plant response rating, Foxtail, Giant [16, 30]: 100 | Plant response rating, Corn [17, 29]: 30 | Plant response rating, Corn [17, 30]: 20 | Plant response rating, Barnyardgrass [18, 29]: 100 | Plant response rating, Barnyardgrass [18, 30]: 100 | Plant response rating, Surinam grass [19, 29]: 100 | Plant response rating, Surinam grass [19, 30]: 90 | Plant response rating, Lambsquarters [20, 29]: 100 | Plant response rating, Lambsquarters [20, 30]: 100 | Plant response rating, Velvetleaf [21, 29]: 0 | Plant response rating, Velvetleaf [21, 30]: 0 | Plant response rating, Morningglory [22, 29]: 0 | Plant response rating, Morningglory [22, 30]: 0 | Plant response rating, Cocklebur [23, 29]: 0 | Plant response rating, Cocklebur [23, 30]: 0 | Plant response rating, Crabgrass [24, 29]: 100 | Plant response rating, Crabgrass [24, 30]: 100 | Plant response rating, Rice [25, 29]: 50 | Plant response rating, Rice [25, 30]: 30 | Plant response rating, Pigweed [26, 29]: 100 | Plant response rating, Pigweed [26, 30]: 100

CCC(CC)c1ccn(C2SCN(c3cccc(C(F)(F)F)c3)C2=O)n1 (stereo not shown) [Compound 25]
Plant response rating, Sunflower ([1]; Rate 125 g/ha): 40 | Plant response rating, Foxtail, Giant [2, 27]: 20 | Plant response rating, Foxtail, Giant [2, 28]: 80 | Plant response rating, Corn [3, 27]: 0 | Plant response rating, Corn [3, 28]: 60 | Plant response rating, Wild Oat [4, 27]: 0 | Plant response rating, Wild Oat [4, 28]: 0 | Plant response rating, Barnyardgrass [5, 27]: 100 | Plant response rating, Barnyardgrass [5, 28]: 100 | Plant response rating, Surinam grass [6, 27]: 0 | Plant response rating, Surinam grass [6, 28]: 40 | Plant response rating, Lambsquarters [7, 27]: 100 | Plant response rating, Lambsquarters [7, 28]: 100 | Plant response rating, Wheat [8, 27]: 0 | Plant response rating, Wheat [8, 28]: 0 | Plant response rating, Blackgrass [9, 27]: 0 | Plant response rating, Blackgrass [9, 28]: 0 | Plant response rating, Velvetleaf [10, 27]: 0 | Plant response rating, Velvetleaf [10, 28]: 20 | Plant response rating, Morningglory [11, 27]: 90 | Plant response rating, Morningglory [11, 28]: 100 | Plant response rating, Cocklebur [12, 27]: 60 | Plant response rating, Cocklebur [12, 28]: 70 | Plant response rating, Crabgrass [13, 27]: 60 | Plant response rating, Crabgrass [13, 28]: 90 | Plant response rating, Pigweed [14, 27]: 70 | Plant response rating, Pigweed [14, 28]: 100 | Plant response rating (0 to 100), Nightshade ([15]; Rate 250 g/ha): 90 | Plant response rating, Foxtail, Giant [16, 29]: 100 | Plant response rating, Foxtail, Giant [16, 32]: 100 | Plant response rating, Corn [17, 29]: 0 | Plant response rating, Corn [17, 32]: 0 | Plant response rating, Barnyardgrass [18, 29]: 100 | Plant response rating, Barnyardgrass [18, 32]: 100 | Plant response rating, Surinam grass [19, 29]: 80 | Plant response rating, Surinam grass [19, 32]: 80 | Plant response rating, Lambsquarters [20, 29]: 100 | Plant response rating, Lambsquarters [20, 32]: 100 | Plant response rating, Velvetleaf [21, 29]: 0 | Plant response rating, Velvetleaf [21, 32]: 0 | Plant response rating, Morningglory [22, 29]: 90 | Plant response rating, Morningglory [22, 32]: 0 | Plant response rating, Cocklebur [23, 29]: 0 | Plant response rating, Cocklebur [23, 32]: 0 | Plant response rating, Crabgrass [24, 29]: 100 | Plant response rating, Crabgrass [24, 32]: 100 | Plant response rating, Rice [25, 29]: 0 | Plant response rating, Rice [25, 32]: 0 | Plant response rating, Pigweed [26, 29]: 100 | Plant response rating, Pigweed [26, 32]: 100

Reference: patent publication US7138361B2, “Herbicidal heterocycles” (E. I. du Pont de Nemours and Company, priority 2000, dated 2006)
